These results are taken from patent US5399703A, “Tetrazole derivatives and drugs” (Nippon Shinyaku Company, Limited, priority 1990, dated 1995).

Where two headings read alike, the source gives them in different places.

One assay concerns the target T1, LTD4 receptor (Cavia porcellus, UniProt Q2NNR5).
T1 construct: membrane fraction prepared from the guinea pig lung; from tissue; host or cells: guinea pig lung membrane fraction
T1 sequence (Q2NNR5 1-340): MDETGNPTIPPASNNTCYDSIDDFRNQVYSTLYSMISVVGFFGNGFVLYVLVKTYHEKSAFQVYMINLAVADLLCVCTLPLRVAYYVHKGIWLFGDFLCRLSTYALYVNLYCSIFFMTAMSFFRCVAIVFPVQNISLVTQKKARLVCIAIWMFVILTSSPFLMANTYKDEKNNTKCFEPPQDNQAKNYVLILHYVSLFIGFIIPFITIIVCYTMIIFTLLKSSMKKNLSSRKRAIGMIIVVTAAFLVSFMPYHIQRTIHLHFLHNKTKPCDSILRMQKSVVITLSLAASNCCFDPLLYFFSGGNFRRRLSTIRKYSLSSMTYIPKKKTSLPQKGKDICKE
Put plainly: Leukotriene D4 (LTD4) binding assay (3H-LTD4, guinea pig lung membrane fraction). As to conditions: for IC50: guinea pig lung membrane, 3H-LTD4, 25° C., 1 hour. Here is the method:
1) Leukotriene D4 (LTD4) binding assay
First, 0.2 pmol of ^3 H-LTD4 and 100 μg of the membrane fraction prepared from the guinea pig lung were incubated at 25° C. for 1 hour and then the reaction mixture was filtered through a glass filter. The radioactivity of ^3 H-LTD4 bound to the membrane remaining on the glass filter was determined and this value was regarded as total binding (total).
Similarly, 100 μg of the membrane fraction was incubated with 0.2 pmol of ^3 H-LTD4 in the presence of a large excess of cold LTD4 (0.1 nmol) at 25° C. for 1 hour and the radioactivity of ^3 H-LTD4 bound to the membrane was determined and regarded as nonspecific binding (NSB).
Specific binding (SB) of ^3 H-LTD4 was calculated according to expression (1).
To investigate the effect of the test substance on LTD4 receptor binding, the test substance was added at the determination of total binding and the total binding in the presence of the test substance (total') was determined. The percent inhibition was calculated according to expression (2).
(total-total')/SB×100 (2)

In assay [1] the test system is endogenous LT-induced airway contractile response in guinea pigs. Put plainly: Effect on endogenous leukotriene (LT)-induced experimental asthma. In kind it is in vivo. As to conditions: guinea pig; for ED50: Cavia porcellus.
Assay [2] concerns antigen-induced airway contractile response in guinea pigs. Put plainly: Effect on experimental asthma (antigen-induced airway contractile response). As to conditions: guinea pig. The format is in vivo. Here is the method:
(4) Effect on experimental asthma
The airway contractile response to intravenous administration of an antigen (benzylpenicilloyl-bovine serum albumin) to guinea pigs passively senstitized with anti-benzylpenicilloyl-bovine gamma globulin guinea pig serum was determined by the Konzett-Rossler method.
The test substance suspended in 0.5% methylcellulose was administered orally and 3 hours later, the airway contractile response caused by antigen-antibody reaction was determined. With the response on complete obstruction of the airway cannula with a clamp taken as 100% contraction, the maximal airway contractile response (expressed in percent) caused by antigen antibody reaction was determined. From this value, the percent inhibition, relative to the control, by the test substance was determined.

By IC50 is commonly meant the point on the concentration scale where inhibition reaches its midpoint. The low end stands for greater potency, the high end for weaker potency. What is called ED50 is the dose that gives a 50% effect, or the effect in half of the subjects. `CCCc1c(OCC(O)COc2ccc3c(=O)cc(C(=O)O)oc3c2CCC)ccc(C(C)=O)c1O` (stereo not drawn) [C, reference compound] showed an IC50 on LTD4 receptor of 3.82 µM. In addition, the ED50 in assay [1] (iv, read-out: Endogenous LT-induced experimental asthma ED50 (i.v.)) came to 0.2 mg/kg.
Consider `O=C(Nc1ccccc1Sc1ccccc1-c1nnn[nH]1)c1ccc(OCCCCc2ccccc2)cc1` [Example 4, N-[2-[2-(1H-Tetrazol-5-yl)phenylthio]phenyl]-4-(4-phenylbutoxy)benzamide], for which the IC50 at LTD4 receptor stood at 0.0358 µM. Besides, the “Endogenous LT-induced experimental asthma p.o. inhibition (%)” value in assay [1] (at 30 mg/kg) is recorded as 30.9%.
For orientation: inhibition means how much of the control response was suppressed. Take `O=C(O)COc1ccc(C(=O)Nc2ccccc2Sc2ccccc2-c2nnn[nH]2)cc1` [Example 6, 4-[2-[2-(1H-Tetrazol-5-yl)phenylthio]phenylcarbamoyl]phenoxyacetic acid]: at LTD4 receptor (at 10^-5 M), the inhibition at 10 µM is 28.9%. Moreover, the “Endogenous LT-induced experimental asthma p.o. inhibition (%)” value in assay [1] (at 0.1 mg/kg) is reported as 36.2%. For the same compound, the “Experimental asthma p.o. inhibition (%)” value in assay [2] (at 30 mg/kg) is listed as 37.9%.
Consider `CCCCCCOc1ccc(C(=O)Nc2ccccc2Sc2ccccc2-c2nnn[nH]2)cc1` [Example 7, N-[2-[2-(1H-Tetrazol-5-yl)phenylthio]phenyl]-4-hexyloxybenzamide], for which the IC50 at LTD4 receptor amounted to 0.18 µM. Besides, the ED50 in assay [1] (po, 3 hours before antigen, read-out: Endogenous LT-induced experimental asthma p.o. ED50) stood at 0.111 mg/kg; in assay [2] (Cavia porcellus, po, 3 hours before antigen) it was 3.52 mg/kg.
Turning to `CCCC/C=C/COc1ccc(C(=O)Nc2ccccc2Sc2ccccc2-c2nnn[nH]2)cc1` [Example 14, (E)-N-[2-[2-(1H-Tetrazol-5-yl)phenylthio]phenyl]-4-(2-heptenyloxy)benzamide], at LTD4 receptor, the IC50 was 0.022 µM. Also, in assay [1] (at 30 mg/kg), the “Endogenous LT-induced experimental asthma p.o. inhibition (%)” value was 58.3%.
Turning to `CCCCOC(=O)COc1ccc(C(=O)Nc2ccccc2Sc2ccccc2-c2nnn[nH]2)cc1` [Example 67, Butyl 4-[2-[2-(1H-tetrazol-5-yl)phenylthio]phenylcarbamoyl]phenoxyacetate], the IC50 on LTD4 receptor was 3.34 µM. Moreover, the “Endogenous LT-induced experimental asthma p.o. inhibition (%)” value in assay [1] (at 0.3 mg/kg) was 61.2%. Further, the “Experimental asthma p.o. inhibition (%)” value in assay [2] (at 10 mg/kg) was 82.6%.
In the same order, the values of `CCN(CC)C(=O)COC(=O)COc1ccc(C(=O)Nc2ccccc2Sc2ccccc2-c2nnn[nH]2)cc1` [Example 105, N,N-Diethylcarbamoylmethyl 4-[2-[2-(1H-tetrazol-5-yl)phenylthio]phenylcarbamoyl]phenoxyacetate] are 18.2 µM, 29.4% and 87.9%.
